Assay results taken from patent US4365989A, “2-Thiocyanomethylthio-4,4-dialkyl-5-substituted-thiazoline fungicides” (Chevron Research Company, priority 1982, dated 1982).

Assays:
Fusarium Moniliforme = experiment: Mycelial inhibition, Fusarium; format: cell-based; conditions: Fusarium verticillioides, 24 hours, relative to standard DIFOLATAN
Description: (§1) A number of the compounds of the present invention were evaluated for in-vitro fungicidal effectiveness by means of a mycelial inhibition test. This test is designed to measure the fungitoxic activity of fungicidal chemicals in terms of their degree of inhibition of mycelium growth. Each compound to be tested was dissolved in acetone to 500 ppm concentration. Paper strips were infused with the particular mycelium growth by covering the paper with a potato dextrose broth culture of mycelial suspension. The papers were then placed on potato dextrose agar plates and sprayed by means of a microsprayer with the fungicidal solution. The treated paper strips were incubated at 25° C. and the data is taken after 24 hours. Fungicidal activities are measured by a zone of inhibited mycelial growth from the center of the paper strip. The effectiveness of the compounds tested for fungicidal activity is reported in Table IIa for those compounds which were effective in inhibiting mycelial growth. The activity is reported in terms of [formula]

Soybean [1] = experiment: Pre-emergent herbicidal test, Soybean; format: in vivo; conditions: Glycine max, 504 h; pre-emergence; 33 micrograms/cm^2; 3 weeks; read-out: Herbicidal Activity Pre-Emergence % Control Soybean
Description: (§2) An acetone solution of the test compound was prepared by mixing 750 mg of the compound, 220 mg of a nonionic surfactant and 25 ml of acetone. This solution was added to approximately 125 ml of water containing 156 mg of surfactant.
(§3) Seeds of the test vegetation were planted in a pot of […] and the test solution was sprayed uniformly onto the soil surface at a dose of 33 micrograms/cm^2. The pot was watered and placed in a greenhouse. […] At the end of this period, the herbicidal effectiveness of the compound was rated based on the physiological observations. A 0-to-100 scale was used, 0 representing no phytotoxicity, 100 representing complete kill.

Plasmopara viticola = experiment: Grape Downy Mildew control, detached grape leaves; format: in vivo; conditions: in Vitis vinifera, Vitis vinifera Emperor detached leaves, read-out: % Control Grape D.M.
Description: The compounds of the invention were tested for the control of the grape downy mildew organism Plasmopara viticola. Detached leaves, between 70 and 85 mm in diameter, of 7-week old Vitis vinifera cultivar Emperor grape seedlings were used as hosts. The leaves were sprayed with a 250 ppm solution of the test compound in acetone. The sprayed leaves were dried, inoculated with a spore suspension of the organism, placed in a humid environmental chamber and incubated at 66° to 68° F. and about 100% relative humidity. After incubation for two days, the plants were then held in a greenhouse seven to nine days; then the amount of disease control was determined. The percent disease control provided by a given gest compound was based on the percent disease reduction relative to untreated check plants.

[2] = system: Mustard (Brassica arvensis); experiment: Pre-emergent herbicidal test, Mustard; format: in vivo; conditions: 504 h, pre-emergence, 33 micrograms/cm^2, 3 weeks
Description: as §2, §3

[3] = system: Lambsquarter (Chenopodium album); experiment: Post-emergent herbicidal test, Lambsquarter; format: in vivo; conditions: 504 h, post-emergence, 33 micrograms/cm^2, 3 weeks, read-out: Herbicidal Activity Post-Emergence % Control L'Qtr.
Lemna minor = experiment: Aquatic weeds control, Lemna; format: in vivo; conditions: 7 to 10 days, read-out: Algicidal Activity % Control Lemna
Description: (§4) Representative compounds of the invention were tested as aquatic herbicides and algicides by the following method. The weed test species were Lemna minor, Elodea canadensis and the algae used was Spirulina maxima.
(§5) An acetone solution of the test compound and a small amount of an alkylarylpolyoxyethylene glycol-containing surfactant was prepared. This solution was mixed with a nutrient solution in quantity sufficient to give a concentration of 2 ppm. Eight oz. plastic cups were filled with 150 ml of this solution. A sample of the test, Lemna and Elodea, was added together to each cup. Forty ml of Spirulina culture with the 2 ppm treatment was placed in 11/2 oz plastic cups (#4 glass vials used after June 9, 1980). The containers were then placed in an illuminated environment maintained at a temperature of about 20° C. for incubation. The containers were observed periodically for growth (as compared to an untreated check). The effectiveness of the test compound was determined based on a final observation of growth after 7 to 10 days. The results of the test on a 0-to-100 basis--0 indicating no effectiveness and 100 indicating complete effectiveness--are reported in Table IV.

[4] = system: Lambsquarter (Chenopodium album); experiment: Pre-emergent herbicidal test, Lambsquarter; format: in vivo; conditions: 504 h, pre-emergence, 33 micrograms/cm^2, 3 weeks, read-out: Herbicidal Activity Pre-Emergence % Control L'Qtr.
Description: as §2, §3

Soybean [5] = experiment: Post-emergent herbicidal test, Soybean; format: in vivo; conditions: Glycine max, 504 h; post-emergence; 33 micrograms/cm^2; 3 weeks; read-out: Herbicidal Activity Post-Emergence % Control Soybean
[6] = system: Watergrass (Ethinochloa crusgalli); experiment: Post-emergent herbicidal test, Watergrass; format: in vivo; conditions: 504 h; post-emergence; 33 micrograms/cm^2; 3 weeks
Rhizoctonia solani = experiment: Mycelial inhibition, Rhizoctonia; format: cell-based; conditions: 24 hours, relative to standard DIFOLATAN, read-out: Mycelial inhibition, % Standard, Rhizoc.
Description: as §1

Pythium Ultimum = experiment: Mycelial inhibition, Pythium; format: cell-based; conditions: Globisporangium ultimum, 24 hours, relative to standard DIFOLATAN
Description: as §1

[7] = system: Pigweed (Amaranthus retraflexus); experiment: Pre-emergent herbicidal test, Pigweed; format: in vivo; conditions: 504 h, pre-emergence, 33 micrograms/cm^2, 3 weeks
Description: as §2, §3

Spirulina maxima = experiment: Algae control, Spirulina; format: cell-based; conditions: Limnospira maxima, 7 to 10 days, read-out: Algicidal Activity % Control Spirulina
Description: as §4, §5

[8] = system: Crabgrass (Digitaria sanguinalis); experiment: Post-emergent herbicidal test, Crabgrass; format: in vivo; conditions: 504 h, post-emergence, 33 micrograms/cm^2, 3 weeks
Phytophthora infestans = experiment: whole plant or invertebrate; format: in vivo; conditions: in Solanum lycopersicum, read-out: % Control Tom. L. Bl.
Aspergillus Niger = experiment: Mycelial inhibition, Aspergillus; format: cell-based; conditions: 24 hours, relative to standard DIFOLATAN, read-out: Mycelial inhibition, % Standard, Asper.
Description: as §1

Septoria apii = format: in vivo; conditions: 250 ppm; celery (Utah) plants
Botrytis Cineria = experiment: Mycelial inhibition, Botrytis; format: cell-based; conditions: 24 hours, relative to standard DIFOLATAN
Description: as §1

Elodea canadensis = experiment: Aquatic weeds control, Elodea; format: in vivo; conditions: 7 to 10 days, read-out: Algicidal Activity % Control Elodea
Description: as §4, §5

[9] = system: Watergrass (Ethinochloa crusgalli); experiment: Pre-emergent herbicidal test, Watergrass; format: in vivo; conditions: 504 h; pre-emergence; 33 micrograms/cm^2; 3 weeks
Description: as §2, §3

[10] = system: Crabgrass (Digitaria sanguinalis); experiment: Pre-emergent herbicidal test, Crabgrass; format: in vivo; conditions: 504 h, pre-emergence, 33 micrograms/cm^2, 3 weeks
Description: as §2, §3

[11] = system: Pigweed (Amaranthus retraflexus); experiment: Post-emergent herbicidal test, Pigweed; format: in vivo; conditions: 504 h, post-emergence, 33 micrograms/cm^2, 3 weeks
[12] = system: Mustard (Brassica arvensis); experiment: Post-emergent herbicidal test, Mustard; format: in vivo; conditions: 504 h, post-emergence, 33 micrograms/cm^2, 3 weeks

CC1(C)N=C(SCSC#N)SC1=CCl [Compound 3]
inhibition at 500 ppm (Fusarium Moniliforme): 115% | plant injury at 33 µg/cm2 (Soybean [1]): 0% | pest or weed control at 250 ppm (Plasmopara viticola): 79% | pest or weed control at 33 µg/cm2 [2]: 15% | pest or weed control at 33 µg/cm2 [3]: 0% | activity at 2 ppm (Lemna minor): 40% | pest or weed control at 33 µg/cm2 [4]: 25% | plant injury at 33 µg/cm2 (Soybean [5]): 0% | pest or weed control at 33 µg/cm2 [6]: 0% | inhibition at 500 ppm (Rhizoctonia solani): 55% | inhibition at 500 ppm (Pythium Ultimum): 40% | pest or weed control at 33 µg/cm2 [7]: 35% | activity at 2 ppm (Spirulina maxima): 40% | pest or weed control at 33 µg/cm2 [8]: 0% | pest or weed control at 250 ppm (Phytophthora infestans): 21% | inhibition at 500 ppm (Aspergillus Niger): 69% | % Control Cel. L. Bl. (Septoria apii): 15% | inhibition at 500 ppm (Botrytis Cineria): 64% | activity at 2 ppm (Elodea canadensis): 90% | pest or weed control at 33 µg/cm2 [9]: 0% | pest or weed control at 33 µg/cm2 [10]: 0% | pest or weed control at 33 µg/cm2 [11]: 0% | pest or weed control at 33 µg/cm2 [12]: 0%

CC1(C)N=C(SCSC#N)SC1=CBr [Compound 4]
inhibition at 500 ppm (Fusarium Moniliforme): 77% | plant injury at 33 µg/cm2 (Soybean [1]): 0% | pest or weed control at 250 ppm (Plasmopara viticola): 100% | pest or weed control at 33 µg/cm2 [2]: 0% | pest or weed control at 33 µg/cm2 [3]: 0% | activity at 2 ppm (Lemna minor): 35% | pest or weed control at 33 µg/cm2 [4]: 0% | plant injury at 33 µg/cm2 (Soybean [5]): 0% | pest or weed control at 33 µg/cm2 [6]: 0% | inhibition at 500 ppm (Rhizoctonia solani): 92% | inhibition at 500 ppm (Pythium Ultimum): 14% | pest or weed control at 33 µg/cm2 [7]: 0% | activity at 2 ppm (Spirulina maxima): 30% | pest or weed control at 33 µg/cm2 [8]: 0% | pest or weed control at 250 ppm (Phytophthora infestans): 0% | inhibition at 500 ppm (Aspergillus Niger): 63% | % Control Cel. L. Bl. (Septoria apii): 23% | inhibition at 500 ppm (Botrytis Cineria): 36% | activity at 2 ppm (Elodea canadensis): 80% | pest or weed control at 33 µg/cm2 [9]: 0% | pest or weed control at 33 µg/cm2 [10]: 0% | pest or weed control at 33 µg/cm2 [11]: 0% | pest or weed control at 33 µg/cm2 [12]: 0%
